Test results from patent US20250302999A1, “TRANSGENE CASSETTES AND EPIGENETIC SILENCERS FOR THE TREATMENT OF DISORDERS” (Ospedale San Raffaele S.r.I., priority 2022, published 2025).

Test system: SNB19 cells
Experiment: Wound healing assay
Type: cell-based, human
Conditions: 48 hrs after scratching; scratch 2 days after start of treatment
Procedure: The wound healing assay was carried out according to Zhang et al. (2018) J Mol Neurosci 64:262-272. At the designated time, five randomly selected fields at the lesion border were acquired under an inverted microscope (Olympus, IX71). The mean number of cells at the control group was defined as 100% and the mean number of other groups was normalised by means of the control group, respectively.

In the case of verteporfin, the “wound healing (cell migration)” value is reported as “healed more slowly”.
